This is an account of results in patent US20260317324A1, “BIFUNCTIONAL COMPOUNDS FOR DEGRADING BRAF VIA UBIQUITIN PROTEOSOME PATHWAY” (Nurix Therapeutics, Inc., priority 2023, published 2026).

SMILES strings stand for the structures.

For orientation: DC50 means the concentration giving 50% degradation. Broadly, the Dmax is the largest share of the target that was removed.

Common to all, as to assay type: cell-based
Experiment [1] deals with T1, BRAF G469A (Homo sapiens, UniProt P15056, G469A).
T1 construct: Horizon Discovery (HCT-116 BRAF−/− cells); host or cells: HCT-116 BRAF−/− cells, clone 34, lentiviral transduction
T1 sequence (P15056 whole entry G469A): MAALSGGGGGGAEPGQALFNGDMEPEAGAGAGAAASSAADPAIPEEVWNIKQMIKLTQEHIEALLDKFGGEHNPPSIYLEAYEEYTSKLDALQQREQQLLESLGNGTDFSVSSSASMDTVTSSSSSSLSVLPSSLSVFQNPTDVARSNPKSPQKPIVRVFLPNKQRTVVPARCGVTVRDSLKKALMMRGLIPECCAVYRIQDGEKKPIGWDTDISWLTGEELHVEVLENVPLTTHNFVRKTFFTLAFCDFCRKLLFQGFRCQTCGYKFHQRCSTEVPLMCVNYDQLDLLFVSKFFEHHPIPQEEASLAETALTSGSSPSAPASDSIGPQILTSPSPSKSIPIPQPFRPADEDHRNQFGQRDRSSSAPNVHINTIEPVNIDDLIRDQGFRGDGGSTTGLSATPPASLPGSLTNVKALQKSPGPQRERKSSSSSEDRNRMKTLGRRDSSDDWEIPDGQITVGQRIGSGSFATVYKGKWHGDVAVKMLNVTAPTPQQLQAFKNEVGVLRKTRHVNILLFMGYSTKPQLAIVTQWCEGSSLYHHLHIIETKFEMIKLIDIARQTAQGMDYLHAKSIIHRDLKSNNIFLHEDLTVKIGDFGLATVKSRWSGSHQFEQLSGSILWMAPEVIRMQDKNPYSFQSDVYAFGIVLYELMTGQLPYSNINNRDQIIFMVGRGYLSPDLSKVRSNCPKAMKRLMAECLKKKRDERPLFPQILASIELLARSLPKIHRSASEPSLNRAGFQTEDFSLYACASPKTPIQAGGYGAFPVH
In words: BRAF HiBiT degradation assay, C-terminal HiBiT-tagged BRAF G469A overexpressed in HCT-116 BRAF−/− cells (clone 34), Nano-Glo HiBiT Lytic assay. An outline of the steps: (§1)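 Luminescence from the lytic HiBiT reagent, read after 10 min at room temperature, measured tagged BRAF remaining in lentivirally transduced HCT-116 BRAF−/− cells. Compounds were tested from 1 μM to 0.01 nM in half-log steps at 0.2% DMSO. DC50 values were fitted at 50% remaining.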
(In general: With HiBiT, luminescence reflects the tagged protein that the partner subunit can reach.)

In experiment [2] the target is T2, BRAF V600E (Homo sapiens, UniProt P15056, V600E).
T2 construct: endogenous C-terminal HiBiT fusion tag on BRAF V600E allele; endogenous in cells; host or cells: A375 clone 1F10 (CRISPR-Cas9 knock-in of the HiBiT tag; parental A375 from ATCC)
T2 sequence (P15056 whole entry V600E, the tested form may be a part): as the sequence (P15056 whole entry G469A) above, with A469G, V600E counted along it
Nature of the experiment: BRAF HiBiT degradation assay, C-terminal HiBiT-tagged BRAF V600E A375 cells (clone 1F10), Nano-Glo HiBiT Lytic assay. The note with it: for Dmax: A-375. An outline of the steps: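 Endogenous BRAF V600E-HiBiT A375 (1F10), 10,000 cells/well, 24 h preculture; cpd 11-pt, 1 μM–0.01 nM half-log, n=2, 0.2% DMSO; HiBiT lytic detection 10 min RT; DC50 = fitted conc at Y=50; Obs. Dmax vs DMSO.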

In experiment [3] the target is T3, BRAF D594G (Homo sapiens, UniProt P15056, D594G).
T3 construct: Horizon Discovery (HCT-116 BRAF−/− cells); host or cells: HCT-116 BRAF−/− cells, clone 63, lentiviral transduction
T3 sequence (P15056 whole entry D594G): as the sequence (P15056 whole entry G469A) above, with A469G, D594G counted along it
Nature of the experiment: BRAF HiBiT degradation assay, C-terminal HiBiT-tagged BRAF D594G overexpressed in HCT-116 BRAF−/− cells (clone 63), Nano-Glo HiBiT Lytic assay. The method, boiled down: as §1

The target in experiment [4] is T4, BRAF G466V (Homo sapiens, UniProt P15056, G466V).
T4 construct: Horizon Discovery (HCT-116 BRAF−/− cells); host or cells: HCT-116 BRAF−/− cells, clone 8, lentiviral transduction
T4 sequence (P15056 whole entry G466V): as the sequence (P15056 whole entry G469A) above, with G466V, A469G counted along it
In words: BRAF HiBiT degradation assay, C-terminal HiBiT-tagged BRAF G466V overexpressed in HCT-116 BRAF−/− cells (clone 8), Nano-Glo HiBiT Lytic assay. An outline of the steps: as §1

Where [5] appears, read: BRAF G469A (Class 2), HCT-116 BRAF−/− cells, DC50 at 50% degradation.
Where [6] appears, read: BRAF G469A (Class 2), HCT-116 BRAF−/− cells, observed Dmax relative to DMSO control.
Where [7] appears, read: A375 (BRAF V600E, Class 1), DC50 at 50% degradation.
[8] abbreviates: A375 (BRAF V600E, Class 1), observed Dmax, % protein degraded relative to DMSO control.
The mark [9] stands for this setting: BRAF D594G (Class 3), HCT-116 BRAF−/− cells, DC50 at 50% degradation.
[10] abbreviates: BRAF D594G (Class 3), HCT-116 BRAF−/− cells, observed Dmax relative to DMSO control.
The mark [11] stands for this setting: BRAF G466V (Class 3), HCT-116 BRAF−/− cells, DC50 at 50% degradation.
[12] abbreviates: BRAF G466V (Class 3), HCT-116 BRAF−/− cells, observed Dmax relative to DMSO control.
The mark [13] stands for this setting: Class 2, BRAF G469A, DC50 at 50%: fitted conc. at Y=50.
[14] abbreviates: HCT-116, Class 2, BRAF G469A, percentage protein degraded at maximal compound effect relative to DMSO.
Where [15] appears, read: A375 (BRAF V600E), DC50 at 50%: fitted conc. at Y=50.
The mark [16] stands for this setting: A375 (BRAF V600E), percentage protein degraded at maximal compound effect relative to DMSO.
[17] abbreviates: BRAF D594G, DC50 at 50%: fitted conc. at Y=50.
[18] abbreviates: HCT-116, BRAF D594G, percentage protein degraded at maximal compound effect relative to DMSO.
The mark [19] stands for this setting: BRAF G466V, DC50 at 50%: fitted conc. at Y=50.
Where [20] appears, read: HCT-116, BRAF G466V, percentage protein degraded at maximal compound effect relative to DMSO.

For `O=C1CC[C@H](c2ccc(N3CCC(CN4CCN(c5ccc(-n6cc(-c7cc(F)cc(NS(=O)(=O)N8CCCC8)c7F)c(-c7ccncc7)n6)cc5)CC4)CC3)cc2)C(=O)N1` [Compound 299, N-{3-[1-(4-{4-[(1-{4-[(3R)-2,6-dioxopiperidin-3-yl]phenyl}piperidin-4-yl)methyl]piperazin-1-yl}phenyl)-3-(pyridin-4-yl)-1H-pyrazol-4-yl]-2,5-difluorophenyl}pyrrolidine-1-sulfonamide], the 50% degradation concentration (DC50) in experiment [1] (setting [5]) is 10 to 50 nM; in experiment [2] (setting [7]) it was less than 10 nM; in experiment [3] (setting [9]), less than 10 nM; in experiment [4] (setting [11]) it was less than 10 nM. The maximal degradation (Dmax) in experiment [1] (setting [6]) was 30 to 70%; in experiment [2] (setting [8]), greater than 70%; in experiment [3] (setting [10]), 30 to 70%; in experiment [4] (setting [12]) it was greater than 70%.

For `C[C@@H]1CN(c2ccc(-n3cc(-c4cc(Cl)cc(NS(=O)(=O)N5CCCC5)c4F)c(-c4ccncc4)n3)nc2)CCN1CC1CCN(c2ccc([C@H]3CCC(=O)NC3=O)cc2)CC1` [Compound 326, N-[5-chloro-3-(1-{5-[(3R)-4-[(1-{4-[(3R)-2,6-dioxopiperidin-3-yl]phenyl}piperidin-4-yl)methyl]-3-methylpiperazin-1-yl]pyridin-2-yl}-3-(pyridin-4-yl)-1H-pyrazol-4-yl)-2-fluorophenyl]pyrrolidine-1-sulfonamide], the DC50 in experiment [1] (setting [5]) was 10 to 50 nM; in experiment [2] (setting [7]) it was less than 10 nM; in experiment [3] (setting [9]), less than 10 nM; in experiment [4] (setting [11]), less than 10 nM. The Dmax is 30 to 70% in experiment [1] (setting [6]), greater than 70% in experiment [2] (setting [8]), greater than 70% in experiment [3] (setting [10]) and greater than 70% in experiment [4] (setting [12]).

In the case of `O=C1CCC(c2ccc(N3CCC(CN4CCN(c5ccc(-n6cc(-c7cc(Cl)cc(NS(=O)(=O)N8CC[C@@H](F)C8)c7F)c(-c7ccncc7)n6)nc5)CC4)CC3)nc2)C(=O)N1` (mixture of isomers) [Compound 296, (3R)—N-{5-chloro-3-[1-(5-{4-[(1-{5-[(3RS)-2,6-dioxopiperidin-3-yl]pyridin-2-yl}piperidin-4-yl)methyl]piperazin-1-yl}pyridin-2-yl)-3-(pyridin-4-yl)-1H-pyrazol-4-yl]-2-fluorophenyl}-3-fluoropyrrolidine-1-sulfonamide], the half-maximal degradation concentration (DC50) in experiment [1] (setting [5]), in experiment [2] (setting [7]), in experiment [3] (setting [9]) and in experiment [4] (setting [11]) was less than 10 nM throughout. For the same molecule, the Dmax in experiment [1] (setting [6]), in experiment [2] (setting [8]), in experiment [3] (setting [10]) and in experiment [4] (setting [12]) was greater than 70% each time.

Consider `O=C1CCN(c2ccc(N3CCC(CN4CCN(c5ccc(-n6cc(-c7cc(F)cc(NS(=O)(=O)N8CC[C@@H](F)C8)c7F)c(-c7ccncc7)n6)nc5)CC4)CC3)cc2)C(=O)N1` [Compound 303, (3R)—N-[3-(1-{5-[4-({1-[4-(2,4-dioxo-1,3-diazinan-1-yl)phenyl]piperidin-4-yl}methyl)piperazin-1-yl]pyridin-2-yl}-3-(pyridin-4-yl)-1H-pyrazol-4-yl)-2,5-difluorophenyl]-3-fluoropyrrolidine-1-sulfonamide], for which the DC50 was 50 to 500 nM in experiment [1] (setting [5]), less than 10 nM in experiment [2] (setting [7]), less than 10 nM in experiment [3] (setting [9]) and 10 to 50 nM in experiment [4] (setting [11]). Besides, the Dmax in experiment [1] (setting [6]) is 30 to 70%; in experiment [2] (setting [8]), greater than 70%; in experiment [3] (setting [10]), 30 to 70%; in experiment [4] (setting [12]), 30 to 70%.

Take `O=C1CC[C@H](c2ccc(N3CCC(CN4CCN(c5ccc(-n6cc(-c7cc(Cl)cc(NS(=O)(=O)N8CC(F)C8)c7F)c(-c7ccncc7)n6)cc5)CC4)CC3)cc2)C(=O)N1` [Compound 333, N-{5-chloro-3-[1-(4-{4-[(1-{4-[(3R)-2,6-dioxopiperidin-3-yl]phenyl}piperidin-4-yl)methyl]piperazin-1-yl}phenyl)-3-(pyridin-4-yl)-1H-pyrazol-4-yl]-2-fluorophenyl}-3-fluoroazetidine-1-sulfonamide]: the DC50 in experiment [1] (setting [5]), in experiment [2] (setting [7]), in experiment [3] (setting [9]) and in experiment [4] (setting [11]) was less than 10 nM in each case. The Dmax in experiment [1] (setting [6]) is 30 to 70%; in experiment [2] (setting [8]), greater than 70%; in experiment [3] (setting [10]), 30 to 70%; in experiment [4] (setting [12]) it was greater than 70%.

Regarding `CCCS(=O)(=O)Nc1cccc(-c2nc(C(C)(C)C)sc2-c2ccnc(Nc3ccc(C4CCN(CC5CCN(c6cncc(C7CCC(=O)NC7=O)c6)CC5)CC4)cc3)n2)c1F` (racemic) [Compound 177, Rac-N-[3-(2-tert-butyl-5-{2-[(4-{1-[(1-{5-[(3R)-2,6-dioxopiperidin-3-yl]pyridin-3-yl}piperidin-4-yl)methyl]piperidin-4-yl}phenyl)amino]pyrimidin-4-yl}-1,3-thiazol-4-yl)-2-fluorophenyl]propane-1-sulfonamide], the DC50 in experiment [1] (setting [13]) is greater than 500 nM; in experiment [2] (setting [15]), 10 to 50 nM; in experiment [3] (setting [17]) it was greater than 500 nM; in experiment [4] (setting [19]), greater than 500 nM. Also, the Dmax is less than 30% in experiment [1] (setting [14]), greater than 70% in experiment [2] (setting [16]), less than 30% in experiment [3] (setting [18]) and less than 30% in experiment [4] (setting [20]).

In the case of `CCCS(=O)(=O)Nc1cccc(-c2nc(C(C)(C)C)sc2-c2ccnc(Nc3ccc(C4CCN(C(=O)CN5CCN(c6cc(C7CCC(=O)NC7=O)ccn6)CC5)CC4)cc3)n2)c1F` (racemic) [Compound 174, Rac-N-[3-(2-tert-butyl-5-{2-[(4-{1-[2-(4-{4-[(3R)-2,6-dioxopiperidin-3-yl]pyridin-2-yl}piperazin-1-yl)acetyl]piperidin-4-yl}phenyl)amino]pyrimidin-4-yl}-1,3-thiazol-4-yl)-2-fluorophenyl]propane-1-sulfonamide], the DC50 in experiment [1] (setting [13]) was greater than 500 nM; in experiment [2] (setting [15]), 10 to 50 nM; in experiment [3] (setting [17]) it was greater than 500 nM; in experiment [4] (setting [19]), greater than 500 nM. Further, the greatest degradation seen (Dmax) in experiment [1] (setting [14]) is less than 30%; in experiment [2] (setting [16]), greater than 70%; in experiment [3] (setting [18]), less than 30%; in experiment [4] (setting [20]), less than 30%.

On to `CCCS(=O)(=O)Nc1cccc(-c2nc(C(C)(C)C)sc2-c2ccnc(Nc3cccc(OC4CCN(C(=O)[C@H]5CC[C@H](Oc6ccc(C7CCC(=O)NC7=O)cn6)CC5)CC4)c3)n2)c1F` (mixture of isomers) [Compound 97, N-{3-[2-tert-butyl-5-(2-{[3-({1-[(1r,4r)-4-({5-[(3RS)-2,6-dioxopiperidin-3-yl]pyridin-2-yl}oxy)cyclohexanecarbonyl]piperidin-4-yl}oxy)phenyl]amino}pyrimidin-4-yl)-1,3-thiazol-4-yl]-2-fluorophenyl}propane-1-sulfonamide], for which the DC50 in experiment [1] (setting [13]) is greater than 500 nM; in experiment [2] (setting [15]), 10 to 50 nM; in experiment [3] (setting [17]) it was greater than 500 nM; in experiment [4] (setting [19]), greater than 500 nM. Besides, the greatest degradation seen (Dmax) in experiment [1] (setting [14]) is less than 30%; in experiment [2] (setting [16]), greater than 70%; in experiment [3] (setting [18]) it was 30 to 70%; in experiment [4] (setting [20]), 30 to 70%.

`O=C1CCN(c2ccc(N3CCC(CN4CCN(c5ccc(-n6cc(-c7cc(Cl)cc(NS(=O)(=O)N8CC[C@@H](F)C8)c7F)c(-c7ccncc7)n6)cc5)CC4)CC3)nc2)C(=O)N1` [Compound 263, (R)—N-(5-chloro-3-(1-(4-(4-((1-(5-(2,4-dioxotetrahydropyrimidin-1(2H)-yl)pyridin-2-yl)piperidin-4-yl)methyl)piperazin-1-yl)phenyl)-3-(pyridin-4-yl)-1H-pyrazol-4-yl)-2-fluorophenyl)-3-fluoropyrrolidine-1-sulfonamide]: the DC50 in experiment [1] (setting [5]), in experiment [2] (setting [7]), in experiment [3] (setting [9]) and in experiment [4] (setting [11]) was less than 10 nM each time. Further, the maximal degradation (Dmax) in experiment [1] (setting [6]) was 30 to 70%; in experiment [2] (setting [8]), greater than 70%; in experiment [3] (setting [10]), 30 to 70%; in experiment [4] (setting [12]), greater than 70%.
